Experiments:
Assay type in all cases: in vivo
[1] = test system: woolly cupgrass (Eriochloa villosa); assay: Test B pre-/postemergence plant response; conditions: for Cupgrass, Woolly plant response rating: 8 g ai/ha
Summary of the method: (§1)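 Preemergence and postemergence (plants 2-18 cm, 1- to 4-leaf stage) applications used test chemicals in a non-phytotoxic solvent with surfactant. Plants were held in a greenhouse 13 to 15 days, then rated visually against controls on a 0-100 scale (0 no effect, 100 complete control).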

[2] = test system: large crabgrass (Digitaria sanguinalis); assay: Test B pre-/postemergence plant response; conditions: for Crabgrass, Large plant response rating: 8 g ai/ha
Summary of the method: as §1

[3] = test system: winter wheat (Triticum aestivum); assay: Test C pre-/postemergence plant response
Summary of the method: (§2)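 Test chemicals in a non-phytotoxic solvent with surfactant were applied preemergence, and some were also applied postemergence to plants 2–18 cm tall (1- to 4-leaf stage). Visual ratings against controls were made after 15–25 days in a controlled environment, on a 0–100 scale where 100 means complete control.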

[4] = test system: Italian ryegrass (Lolium multiflorum); assay: Test C pre-/postemergence plant response
Summary of the method: as §2

[5] = test system: canarygrass (Phalaris minor); assay: Test C pre-/postemergence plant response
Summary of the method: as §2

[6] = test system: blackgrass (Alopecurus myosuroides); assay: Test C pre-/postemergence plant response
Summary of the method: as §2

[7] = test system: annual bluegrass (Poa annua); assay: Test C pre-/postemergence plant response
Summary of the method: as §2

[8] = test system: spring barley (Hordeum vulgare); assay: Test C pre-/postemergence plant response
Summary of the method: as §2

[9] = test system: green foxtail (Setaria viridis); assay: Test C pre-/postemergence plant response
Summary of the method: as §2

[10] = test system: wild mustard (Sinapis arvensis); assay: Test C pre-/postemergence plant response
Summary of the method: as §2

[11] = test system: pigweed (Amaranthus retroflexus); assay: Test C pre-/postemergence plant response
Summary of the method: as §2

[12] = test system: downy bromegrass (Bromus tectorum); assay: Test C pre-/postemergence plant response
Summary of the method: as §2

[13] = test system: wild oat (Avena fatua); assay: Test C pre-/postemergence plant response
Summary of the method: as §2

[14] = Postemergence, 16 g ai/ha, scale 0 to 100
[15] = Postemergence, 31 g ai/ha, scale 0 to 100, 0 no effect, 100 complete control
[16] = Postemergence, 62 g ai/ha, scale 0 to 100
[17] = Preemergence, 16 g ai/ha, scale 0 to 100 (0 no effect, 100 complete control)
[18] = Preemergence, 31 g ai/ha, 0 to 100 scale, 0 no effect, 100 complete control
[19] = Preemergence, 62 g ai/ha, scale 0 to 100
[20] = Postemergence, 8 g ai/ha, scale 0 to 100, 0 no effect, 100 complete control
[21] = Postemergence, 16 g ai/ha, scale 0 to 100, 0 no effect, 100 complete control
[22] = Postemergence, 62 g ai/ha, scale 0 to 100, 0 no effect, 100 complete control
[23] = Preemergence, 8 g ai/ha, scale 0 to 100 (0 no effect, 100 complete control)
[24] = Preemergence, 31 g ai/ha, scale 0 to 100 (0 no effect, 100 complete control)
[25] = Preemergence, 62 g ai/ha, scale 0 to 100, 0 no effect, 100 complete control

CCc1cc(-c2ccc(Cl)c(Cl)c2)nn1-c1c(O)cnn(C)c1=O [Compound 20]
Cupgrass, Woolly plant response rating ([1]; postemergence, 0-100 scale): 45
Plant response rating, Cupgrass, Woolly [1, 14]: 90
Plant response rating, Cupgrass, Woolly [1, 15]: 90
Plant response rating, Cupgrass, Woolly [1, 16]: 100
Plant response rating, Cupgrass, Woolly [1, 17]: 30
Plant response rating, Cupgrass, Woolly [1, 18]: 50
Plant response rating, Cupgrass, Woolly [1, 19]: 98
Cupgrass, Woolly plant response rating ([1]; Preemergence, scale 0 to 100): 0
Crabgrass, Large plant response rating ([2]; postemergence, 0-100 scale): 5
Plant response rating, Crabgrass, Large [2, 14]: 70
Plant response rating, Crabgrass, Large [2, 15]: 85
Plant response rating, Crabgrass, Large [2, 16]: 90
Plant response rating, Crabgrass, Large [2, 17]: 50
Plant response rating, Crabgrass, Large [2, 18]: 50
Plant response rating, Crabgrass, Large [2, 19]: 60
Crabgrass, Large plant response rating ([2]; Preemergence, scale 0 to 100): 0
Plant response rating, Wheat, Winter [3, 20]: 0
Plant response rating, Wheat, Winter [3, 21]: 20
Plant response rating, Wheat, Winter [3, 15]: 30
Plant response rating, Wheat, Winter [3, 22]: 60
Plant response rating, Ryegrass, Italian [4, 20]: 65
Plant response rating, Ryegrass, Italian [4, 21]: 80
Plant response rating, Ryegrass, Italian [4, 15]: 95
Plant response rating, Ryegrass, Italian [4, 22]: 98
Plant response rating, Canarygrass [5, 20]: 10
Plant response rating, Canarygrass [5, 21]: 35
Plant response rating, Canarygrass [5, 15]: 75
Plant response rating, Canarygrass [5, 22]: 95
Plant response rating, Blackgrass [6, 20]: 0
Plant response rating, Blackgrass [6, 21]: 35
Plant response rating, Blackgrass [6, 15]: 60
Plant response rating, Blackgrass [6, 22]: 75
Plant response rating, Bluegrass [7, 20]: 0
Plant response rating, Bluegrass [7, 21]: 0
Plant response rating, Bluegrass [7, 15]: 0
Plant response rating, Bluegrass [7, 22]: 0
Plant response rating, Barley, Spring [8, 20]: 0
Plant response rating, Barley, Spring [8, 21]: 25
Plant response rating, Barley, Spring [8, 15]: 25
Plant response rating, Barley, Spring [8, 22]: 50
Plant response rating, Foxtail, Green [9, 20]: 0
Plant response rating, Foxtail, Green [9, 21]: 70
Plant response rating, Foxtail, Green [9, 15]: 80
Plant response rating, Foxtail, Green [9, 22]: 98
Plant response rating, Mustard, Wild [10, 20]: 0
Plant response rating, Mustard, Wild [10, 21]: 0
Plant response rating, Mustard, Wild [10, 15]: 0
Plant response rating, Mustard, Wild [10, 22]: 0
Plant response rating, Pigweed [11, 20]: 0
Plant response rating, Pigweed [11, 21]: 0
Plant response rating, Pigweed [11, 15]: 0
Plant response rating, Pigweed [11, 22]: 0
Plant response rating, Bromegrass, Downy [12, 20]: 0
Plant response rating, Bromegrass, Downy [12, 21]: 0
Plant response rating, Bromegrass, Downy [12, 15]: 0
Plant response rating, Bromegrass, Downy [12, 22]: 10
Plant response rating, Oat, Wild [13, 20]: 10
Plant response rating, Oat, Wild [13, 21]: 98
Plant response rating, Oat, Wild [13, 15]: 100
Plant response rating, Oat, Wild [13, 22]: 100

Cc1cn(-c2ccc(Cl)cc2)nc1-c1c(O)cnn(C)c1=O [Compound 30, 4-[1-(4-chlorophenyl)-4-methyl-1H-pyrazol-3-yl]-5-hydroxy-2-methyl-3(2H)-pyridazinone]
pest or weed control at 16 g/ha ([1]; Eriochloa villosa, pre-emergence, Preemergence, 16 g ai/ha, scale 0 to 100 (0 no effect, 100 complete control), read-out: Plant response rating, Cupgrass, Woolly): 75%
pest or weed control at 31 g/ha ([1]; Eriochloa villosa, pre-emergence, Preemergence, 31 g ai/ha, 0 to 100 scale, 0 no effect, 100 complete control, read-out: Plant response rating, Cupgrass, Woolly): 98%
pest or weed control at 62 g/ha ([1]; Eriochloa villosa, pre-emergence, Preemergence, 62 g ai/ha, scale 0 to 100, read-out: Plant response rating, Cupgrass, Woolly): 100%
Cupgrass, Woolly plant response rating ([1]; Preemergence, scale 0 to 100): 50
pest or weed control at 16 g/ha ([2]; Digitaria sanguinalis, pre-emergence, Preemergence, 16 g ai/ha, scale 0 to 100 (0 no effect, 100 complete control), read-out: Plant response rating, Crabgrass, Large): 90%
pest or weed control at 31 g/ha ([2]; Digitaria sanguinalis, pre-emergence, Preemergence, 31 g ai/ha, 0 to 100 scale, 0 no effect, 100 complete control, read-out: Plant response rating, Crabgrass, Large): 100%
pest or weed control at 62 g/ha ([2]; Digitaria sanguinalis, pre-emergence, Preemergence, 62 g ai/ha, scale 0 to 100, read-out: Plant response rating, Crabgrass, Large): 100%
Crabgrass, Large plant response rating ([2]; Preemergence, scale 0 to 100): 80
Plant response rating, Wheat, Winter [3, 23]: 0
Plant response rating, Wheat, Winter [3, 17]: 0
Plant response rating, Wheat, Winter [3, 24]: 0
Plant response rating, Wheat, Winter [3, 25]: 0
Plant response rating, Ryegrass, Italian [4, 23]: 0
Plant response rating, Ryegrass, Italian [4, 17]: 30
Plant response rating, Ryegrass, Italian [4, 24]: 60
Plant response rating, Ryegrass, Italian [4, 25]: 75
Plant response rating, Canarygrass [5, 23]: 0
Plant response rating, Canarygrass [5, 17]: 0
Plant response rating, Canarygrass [5, 24]: 65
Plant response rating, Canarygrass [5, 25]: 90
Plant response rating, Blackgrass [6, 23]: 0
Plant response rating, Blackgrass [6, 17]: 20
Plant response rating, Blackgrass [6, 24]: 90
Plant response rating, Blackgrass [6, 25]: 98
Plant response rating, Bluegrass [7, 23]: 0
Plant response rating, Bluegrass [7, 17]: 0
Plant response rating, Bluegrass [7, 24]: 0
Plant response rating, Bluegrass [7, 25]: 0
Plant response rating, Barley, Spring [8, 23]: 0
Plant response rating, Barley, Spring [8, 17]: 0
Plant response rating, Barley, Spring [8, 24]: 30
Plant response rating, Barley, Spring [8, 25]: 50
Plant response rating, Foxtail, Green [9, 23]: 10
Plant response rating, Foxtail, Green [9, 17]: 25
Plant response rating, Foxtail, Green [9, 24]: 80
Plant response rating, Foxtail, Green [9, 25]: 100
Plant response rating, Mustard, Wild [10, 24]: 0
Plant response rating, Pigweed [11, 23]: 0
Plant response rating, Pigweed [11, 17]: 0
Plant response rating, Pigweed [11, 24]: 0
Plant response rating, Pigweed [11, 25]: 0
Plant response rating, Bromegrass, Downy [12, 23]: 0
Plant response rating, Bromegrass, Downy [12, 17]: 0
Plant response rating, Bromegrass, Downy [12, 24]: 0
Plant response rating, Bromegrass, Downy [12, 25]: 0
Plant response rating, Oat, Wild [13, 23]: 0
Plant response rating, Oat, Wild [13, 17]: 0
Plant response rating, Oat, Wild [13, 24]: 30
Plant response rating, Oat, Wild [13, 25]: 40
